Measurements from US10710988B2, “Piperazine derivative” (Astellas Pharma Inc., priority 2016, dated 2020).

What was measured:
Assay type in all cases: cell-based
human MC3 receptor = molecular target: T1, human MC3 receptor (Homo sapiens, UniProt P41968); test: Human MC3 receptor activation, cAMP production in cells transiently expressing the receptor; conditions: FreeStyle 293-F cells expressing human MC3 receptor, α-MSH maximum = 100%
T1 construct: expressed in transfected cells; host or cells: FreeStyle 293-F cells (transient, electroporation)
T1 sequence (P41968 whole entry): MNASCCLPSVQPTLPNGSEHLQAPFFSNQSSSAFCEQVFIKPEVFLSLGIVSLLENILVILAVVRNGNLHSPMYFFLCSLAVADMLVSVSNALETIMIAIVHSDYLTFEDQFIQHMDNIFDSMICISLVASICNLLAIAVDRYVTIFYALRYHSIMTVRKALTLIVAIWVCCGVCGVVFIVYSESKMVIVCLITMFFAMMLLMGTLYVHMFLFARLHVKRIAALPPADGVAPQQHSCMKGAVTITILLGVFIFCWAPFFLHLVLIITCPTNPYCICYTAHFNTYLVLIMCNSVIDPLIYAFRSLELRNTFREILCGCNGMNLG
From the text: (§1) (1) Construction of Human MC Receptor-Expressing Vector
(§2) A human MC4 receptor gene (GenBank Accession No.: NM_005912.2), a human MC1 receptor gene (GenBank Accession No.: NM_002386.3), or a human MC3 receptor gene (GenBank Accession No.: NM_019888.3) was introduced into an expression vector pcDNA™ 3.1N/V5-His TOPO (registered trademark) (Thermo Fisher Scientific Inc).
(§3) (2) Construction of Cells Transiently Expressing Human MC Receptor
(§4) An expression vector for a human MC4, MC1, or MC3 receptor was introduced into FreeStyle™ 293-F cells (Thermo Fisher Scientific Inc., product number: R790-07). For the introduction, electroporation was employed. That is, 1×10^7 FreeStyle™ 293-F cells were suspended in 80 μL of an Electroporation Buffer (Thermo Fisher Scientific Inc., product number: B201-100), and 20 μg of the expression vector was added thereto. The resultant was put into a cuvette (OC-100 Processing Assembly, MaxCyte, Inc.) and electroporated with MaxCyte STX (registered trademark) (MaxCyte, Inc.). The cells were cultured for a day, suspended in a Cell Banker (registered trademark) 1 (TAKARA BIO INC. or JUJI FIELD Inc., product number: BLC-1), and stored frozen until they were used.
(§5) (3) Measurement of Amount of cAMP Production
(§6) Measurement was carried out by using a LANCE (registered trademark) Ultra cAMP Kit (PerkinElmer, Inc.) in accordance with the attached instructions. That is, after dissolution in DMSO, the test compound (a final concentration of 1 pM to 30 μM) diluted with an assay buffer (Hank's balanced salt solution, 5 mM 4-(2-hydroxyethyl)-1-piperazineethanesulfonic acid (HEPES), 0.5 mM 3-isobutyl-1-methylxanthine (IBMX), 0.1% bovine serum albumin, pH 7.4), or α-MSH (Bachem Inc., a final concentration of 1 pM to 30 μM) was added to OptiPlate-384 (PerkinElmer, Inc.). Furthermore, the suspension of the cells transiently expressing the human MC4, MC1, or MC3 receptor prepared using the assay buffer was added thereto at 1,000 cells/well, and then left to stand at room temperature for about 1 hour. Thereafter, an Eu-cAMP tracer solution and an ULight™-anti-cAMP solution were added thereto, and then the resulting solution was left to stand at room temperature for about 1 hour. The amount of cAMP was calculated using EnVision (registered trademark) (PerkinElmer Inc.).
(§7) For the agonistic activity, the efficacy (EC50 (μM)) was calculated by a non-linear regression method with a Sigmoid-Emax model, by defining the maximum reaction using α-MSH as 100% and the reaction using the vehicle alone as 0%, respectively.

rat MC4 receptor = molecular target: T2, rat MC4 receptor (Rattus norvegicus, UniProt P70596); test: Rat MC4 receptor activation, cAMP production in cells transiently expressing the receptor; conditions: FreeStyle 293-F cells expressing rat MC4 receptor, α-MSH maximum = 100%
T2 construct: expressed in transfected cells; host or cells: FreeStyle 293-F cells (transient, electroporation)
T2 sequence (P70596 whole entry): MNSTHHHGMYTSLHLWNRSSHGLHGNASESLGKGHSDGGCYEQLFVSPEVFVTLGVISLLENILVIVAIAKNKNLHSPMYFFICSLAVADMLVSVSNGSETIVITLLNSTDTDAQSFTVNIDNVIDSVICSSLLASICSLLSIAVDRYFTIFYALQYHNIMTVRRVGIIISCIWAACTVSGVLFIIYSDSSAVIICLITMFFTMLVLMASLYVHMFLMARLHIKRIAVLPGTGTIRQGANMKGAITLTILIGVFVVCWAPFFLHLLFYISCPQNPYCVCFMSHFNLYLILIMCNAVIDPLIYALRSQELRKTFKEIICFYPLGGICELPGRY
From the text: (1) Construction of Rat MC4 Receptor-Expressing Vector
A rat MC4 receptor gene (GenBank Accession No.: NM_013099.3) was introduced into an expression vector pcDNA™ 3.1N/V5-His TOPO (registered trademark) (Thermo Fisher Scientific Inc.).
(2) Construction of Cells Transiently Expressing Rat MC4 Receptor
as §4, with “rat MC4” for “human MC4, MC1, or MC3”, “Inc.).” for “Inc., product number: R790-07).”, “electroporation buffer” for “Electroporation Buffer”, “Inc.),” for “Inc., product number: B201-100),”, “Inc.),” for “Inc., product number: BLC-1),”
as §5
Measurement was carried out in accordance with the attached instructions, using a LANCE (registered trademark) Ultra cAMP Kit (PerkinElmer, Inc.). That is, after dissolution in DMSO, the test compound (a final concentration of 1 pM to 30 μM) diluted with an assay buffer (Hank's balanced salt solution, 5 mM HEPES, 0.5 mM IBMX, 0.1% bovine serum albumin, pH 7.4), or α-MSH (Bachem Inc., a final concentration of 1 pM to 30 μM) was added to OptiPlate-384 (PerkinElmer, Inc.). Furthermore, the suspension of the cells transiently expressing the rat MC receptor that was prepared using the assay buffer was added thereto at 1,000 cells/well, and then left to stand at room temperature for about 1 hour. Thereafter, an Eu-cAMP tracer solution and an ULight™-anti-cAMP solution were added thereto, and the resulting solution was left to stand at room temperature for about 1 hour. The amount of cAMP was calculated using EnVision (registered trademark) (PerkinElmer Inc).
For the agonistic activity, an efficacy (EC50 (μM)) was calculated by a non-linear regression method with a Sigmoid-Emax model, by defining the maximum reaction using α-MSH as 100% and the reaction using a vehicle alone as 0%, respectively.

human MC1 receptor = molecular target: T3, human MC1 receptor (Homo sapiens, UniProt Q01726); test: Human MC1 receptor activation, cAMP production in cells transiently expressing the receptor; conditions: FreeStyle 293-F cells expressing human MC1 receptor, α-MSH maximum = 100%
T3 construct: expressed in transfected cells; host or cells: FreeStyle 293-F cells (transient, electroporation)
T3 sequence (Q01726 whole entry): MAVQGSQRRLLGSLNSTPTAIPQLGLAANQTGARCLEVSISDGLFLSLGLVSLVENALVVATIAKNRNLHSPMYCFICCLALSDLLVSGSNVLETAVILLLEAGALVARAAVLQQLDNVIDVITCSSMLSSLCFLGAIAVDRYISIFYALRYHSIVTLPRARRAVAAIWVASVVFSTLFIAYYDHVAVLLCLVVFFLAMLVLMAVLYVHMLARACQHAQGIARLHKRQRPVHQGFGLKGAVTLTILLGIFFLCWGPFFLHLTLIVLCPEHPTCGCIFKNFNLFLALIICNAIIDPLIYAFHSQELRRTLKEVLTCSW
From the text: as §1, §2, §3, §4, §5, §6, §7

human MC4 receptor = molecular target: T4, human MC4 receptor (Homo sapiens, UniProt P32245); test: Human MC4 receptor activation, cAMP production in cells transiently expressing the receptor; conditions: FreeStyle 293-F cells expressing human MC4 receptor, α-MSH maximum = 100%
T4 construct: expressed in transfected cells; host or cells: FreeStyle 293-F cells (transient, electroporation)
T4 sequence (P32245 whole entry): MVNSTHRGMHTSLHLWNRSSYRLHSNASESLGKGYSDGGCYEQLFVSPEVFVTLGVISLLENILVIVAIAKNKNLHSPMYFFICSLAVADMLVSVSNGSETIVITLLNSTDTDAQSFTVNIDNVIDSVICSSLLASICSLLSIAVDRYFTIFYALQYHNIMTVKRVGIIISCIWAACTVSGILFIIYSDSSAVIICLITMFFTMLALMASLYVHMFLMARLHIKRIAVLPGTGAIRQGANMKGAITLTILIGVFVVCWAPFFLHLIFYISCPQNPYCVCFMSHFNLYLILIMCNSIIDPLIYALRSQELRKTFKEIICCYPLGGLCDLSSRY
From the text: as §1, §2, §3, §4, §5, §6, §7

Row | SMILES | EC50 (human MC3 receptor) | EC50 (rat MC4 receptor) | EC50 (human MC1 receptor) | EC50 (human MC4 receptor)
1 | CC(=O)N[C@@H](CC(C)(C)C)C(=O)N1C[C@H](C)N(C(=O)[C@@H]2CN(C(C)(C)C)C[C@H]2c2ccc(F)cc2F)C[C@H]1C.Cl [Example 4, N-{(2S)-1-[(2R,5S)-4-{[(3 S,4R)-1-tert-butyl-4-(2,4-difluorophenyl)pyrrolidin-3-yl]carbonyl}-2,5-dimethylpiperazin-1-yl]-4,4-dimethyl-1-oxopentan-2-yl}acetamide monohydrochloride] | 270 nM | 2 nM | 1000 nM | 6.8 nM
2 | CC(=O)N[C@@H](CC(C)C)C(=O)N1CCN(C(=O)[C@@H]2CN(C(C)(C)C)C[C@H]2c2ccc(Cl)cc2F)C[C@H]1C [Example 5] | 550 nM | 3.3 nM | 710 nM | 6 nM
3 | CC(=O)N[C@H](C(=O)N1CCN(C(=O)[C@@H]2CN(C(C)(C)C)C[C@H]2c2ccc(F)cc2F)[C@@H](C)C1)C1CCCCC1.Cl [Example 6, N-{(1S)-2-[(3S)-4-{[(3S,4R)-1-tert-butyl-4-(2,4-difluorophenyl)pyrrolidin-3-yl]carbonyl}-3-methylpiperazin-1-yl]-1-cyclohexyl-2-oxoethyl}acetamide monohydrochloride] | 1800 nM | 16 nM | 2600 nM | 19 nM
4 | CC(=O)N[C@@H](CC(C)(C)C)C(=O)N1CCN(C(=O)[C@@H]2CN(C(C)(C)C)C[C@H]2c2ccc(F)cc2F)[C@@H](C)C1.Cl [Example 8] | 1000 nM | 4.7 nM | 1700 nM | 10 nM
5 | CC(=O)N[C@@H](CC(C)(C)C)C(=O)N1C[C@H](C)N(C(=O)C2CN(C(C)(C)C)CC2c2ccc(F)cc2)C[C@H]1C.Cl (some centres unmarked) [Example 11] | 890 nM | 10 nM | 1600 nM | 11 nM
